Measured values taken from patent US5278176A (Abbott Laboratories, priority 1992, dated 1994).
Structures can show the parent of a compound that is named as a salt.

Key:
[1] = molecular target: Neuronal Nicotinic Receptors; assay: Binding of [^3 H]-methylcarbamylcholine ([^3 H]-MCC) to neuronal nicotinic receptors (Table 1); design: species or system rat
Procedure: Protocols for Determination of Nicotinic Receptor Binding Potencies of Agonists
Binding of [^3 H]-methylcarbamylcholine ([^3 H]-MCC) to nicotinic receptor was accomplished using crude synaptic membrane preparations from whole rat brain (Snyder and Enna, Brain Research, 1975, 100:81). Washed membranes were stored at -80° C. prior to use. Frozen aliquots were slowly thawed and resuspended in 20 volumes of buffer (containing: 120 mM NaCl, 5 mM KCl, 2 mM MgCl2, 2 mM CaCl2 and 50 mM Tris-Cl, pH 7.4 @4° C.). After centrifuging at 20,000 g for 15 minutes, the pellets were resuspended in 30 volumes of buffer. Homogenate (containing 125-150 μg protein) was added to triplicate tubes containing concentrations of test compound and [^3 H]-MCC (3 nM) in a final volume of 500 μL. Samples were incubated for 60 minutes at 4° C., then rapidly filtered through Whatman GF/B filters presoaked in 0.5% polyethylimine using 3×4 mL of ice-cold buffer. The filters are counted in 4 mL of Ecolume® (ICN). […] Alternately, data were expressed as a percentage of the total specific binding.

[2] = tested on: parietotemporal cortex; settings: parietotemporal cortex of humans; cited from earlier work
[3] = background statement; cited from earlier work
[4] = tested on: insecticidal activity; settings: U.S. Pat. No. 4,093,620; cited from earlier work
[5] = tested on: retention of the avoidance response; assay: Inhibitory Avoidance Studies; assay type: in vivo, CD1 mice; settings: 0.06-6.2 μmol/kg IP, 15 min before training; FIG. 2
Procedure: FIG. 2 is a graphical representation (bar graph) of the effects of the compound of Example 8 (0.001-1.0 mg/kg) on the performance of CD1 mice in Inhibitory Avoidance Studies expressed as median step-through latency time (seconds).
The inhibitory (or sometimes called passive) avoidance (IA) test is a well accepted animal model of learning/memory used to assess the activity of novel muscarinic agonists to enhance cognitive function (Wanibuchi et al., Eur. J. Pharmacol., 1990, 187:479). Animals are placed in the illuminated (12×14×11 cm) portion of a two-chambered box, from which they enter through a guillotine door to the larger (24×13.5×12 cm) dark compartment of the box. Entry to the dark compartment is accompanied by a mild (0.5 mA), brief (2 seconds) footshock. Initial latencies to cross are recorded, with an imposed 60 second ceiling. Following a 72 hour retention interval, animals are returned to the illuminated chamber, and latency to return to the dark compartment is again recorded, with a ceiling of 180 seconds. No footshock is administered on the test day.
Twelve animals were used in each group.

[6] = tested on: anxiolytic activity (time in open arms); assay: Mouse Elevated Plus-Maze Studies; assay type: in vivo, CD1 mice
Procedure: FIG. 4 is a graphical representation of the effects of the compound of Example 4 (0.003-0.3 mg/kg) on the performance of CD1 mice in the Elevated-Plus Maze Study expressed as median time (seconds) spent on the open arms of the maze.
The mouse elevated plus-maze is a conflict test that probes anxiolytic activity of test compounds (Lister, Psychopharmacology, 1987, 92:180). It is based on the fact that exposure of mice to an elevated open arm leads to an avoidance response considerably stronger than that evoked by exposure to an enclosed arm.
The apparatus required to perform this test is made of plywood and consists of two open arms (17×8 cm) and two enclosed arms (17×8×15 cm) extending from a central platform (8×8 cm). It is mounted on a plywood base rising 39 cm above the floor. Mice are released on the central platform and the time spent in the open and enclosed arms is recorded during a 5 minute test period.
The compound of Example 4 (0.62-6.2 μmol/kg, IP) was administered to CD1 mice 15 minutes before the test.

[7] = tested on: cortical receptors; settings: cited from earlier work
[8] = tested on: cholinergic receptors located in the heart; settings: cited from earlier work
[9] = tested on: receptors; settings: chronic nicotine administration; cited from earlier work
[10] = tested on: heart; settings: in vivo; cited from earlier work
[11] = tested on: withdrawal symptoms; settings: double-blind studies; cited from earlier work
[12] = tested on: cognitive function; settings: acutely and chronically administered; preserved in aged animals; cited from earlier work
[13] = tested on: anger, irritability, frustration, tension, anxiety; settings: cited from earlier work
[14] = [^3 H]-MCC (3 nM), whole rat brain membranes, 60 min at 4° C., Cheng-Prusoff from IC50

CC1CCN(C)C1c1cccnc1 (stereo not drawn) [Example 10, 3'-methylnicotine dioxalate]
Ki [1, 14]: 23 nM

CNC1(C)C2CCC(C2)C1(C)C (stereo not drawn) [mecamylamine]
resting cortical perfusion [2]: reduces resting cortical perfusion

CC1CN(C)C(c2cccnc2)C1C (stereo not drawn) [Example 13, 3',4'-Dimethylnicotine oxalate]
Ki [1, 14]: 105 nM

CN1C[C@@H](CC#N)CC1c1cccnc1 (stereo partly drawn) [Example 16, 4'-(R)-Cyanomethylnicotine oxalate]
Ki [1, 14]: 53 nM

COC(=O)C1=CCCN(C)C1 [arecoline]
pharmacokinetics [3]: unfavorable pharmacokinetics | Ki ([1]; arecoline comparator in text, unit inferred): 59 nM

CN1C(C#N)CCC1c1cccnc1 (stereo not drawn) [5'-cyanonicotine]
insecticidal activity [4]: insecticidal activity

CN1C[C@H](CF)CC1c1cccnc1.O=C(O)C(=O)O (stereo partly drawn) [Example 8, 4'-(R)-Fluoromethylnicotine oxalate]
Ki [1, 14]: 10 nM | facilitation of retention of the avoidance response [5]: significantly facilitated the retention of the avoidance response

CN1C[C@H](OS(C)(=O)=O)CC1c1cccnc1 (stereo partly drawn) [Example 19, 4'-(R)-Methanesulfonyoxynicotine oxalate]
Ki [1, 14]: 276 nM

CC[C@H]1CC(c2cccnc2)N(C)C1 (stereo partly drawn) [Example 6, 4'-(S)-Ethylnicotine dioxalate]
Ki [1, 14]: 53 nM

CN1CCC(CF)C1c1cccnc1 (stereo not drawn) [Example 9, 3'-Fluoromethylnicotine oxalate]
Ki [1, 14]: 106 nM

CN1C[C@@H](C#N)CC1c1cccnc1 (stereo partly drawn) [Example 11, 4'-(S)-Cyanonicotine dioxalate]
Ki [1, 14]: 7 nM

CO[C@@H]1CC(c2cccnc2)N(C)C1 (stereo partly drawn) [Example 2, 4'-(R)-Methoxynicotine oxalate]
Ki [1, 14]: 25 nM

CN1C[C@H](O)CC1c1cccnc1 (stereo partly drawn) [Example 1, 4'-(R)-Hydroxynicotine oxalate]
Ki [1, 14]: 29 nM

C[C@@H]1CC(c2cccnc2)N(C)C1.O=C(O)C(=O)O.O=C(O)C(=O)O (stereo partly drawn) [Example 4, 4'-(R)-Methylnicotine dioxalate]
anxiolytic response (time in open arms) ([6]; 0.62-6.2 μmol/kg IP, 15 min before test, p<0.05 vs control, FIG. 4): clear anxiolytic response | anxiolytic effect compared with (-)nicotine ([6]; FIG. 4): anxiolytic effect similar to (-)nicotine | Ki [1, 14]: 4.2 nM

C[N+](C)(C)CCOC(N)=O [carbachol]
CNS penetration [3]: poor CNS penetration

CCN1C(=O)CC2(CCN(C)CC2)C1=O [RS-86]
agonist efficacy at cortical receptors [7]: only a partial agonist at cortical receptors | agonist efficacy at cardiac receptors [8]: full agonist at cardiac receptors | potency and selectivity [3]: poor potency and lack of selectivity

CN1C[C@@H](Cc2ccccc2)CC1c1cccnc1 (stereo partly drawn) [Example 5, 4'-(S)-Benzylnicotine dioxalate]
Ki [1, 14]: 135 nM

CN1C[C@@H](F)CC1c1cccnc1 (stereo partly drawn) [Example 3, 4'-(S)-Fluoronicotine dioxalate]
Ki [1, 14]: 35 nM

CN1CCC[C@H]1c1cccnc1 [nicotine]
effect on receptor affinity [9]: without affecting affinity | up-regulation of number of receptors [9]: 50-100% | stimulant effects on the heart [10]: increasing cardiac workload and oxygen demand | suppression/prevention of withdrawal signs and symptoms vs placebo [11]: far superior to placebo in suppressing or preventing the appearance of many of the signs and symptoms of withdrawal | time spent in open arms of the maze ([6]; (-)nicotine 0.1 and 0.3 mmol/kg, p<0.05 vs saline, 5 min test): significant increase in the time spent by the mice in the open arms of the maze | oral bioavailability [3]: poor oral bioavailability | pharmacokinetics [3]: unfavorable pharmacokinetics | cognitive function [12]: enhances cognitive function in rats | Ki [1, 14]: 1 nM | anxiolytic properties ([13]; Pomerleau et al. 1984): anxiolytic properties | effect on anger, irritability, frustration, tension ([13]; U.S. Pat. No. 3,879,794, without general response depression, drowsiness or sedation): effective in reducing anger, irritability, frustration and feelings of tension

CC(=O)O[C@@H]1CC(c2cccnc2)N(C)C1 (stereo partly drawn) [Example 12, 4'-(R)-Acetyloxynicotine oxalate]
Ki [1, 14]: 162 nM
